Test results published in patent publication US12391737B2, “Soluble NPY2 receptor agonists” (Boehringer Ingelheim International GmbH, priority 2020, dated 2025).
*1 amine or outer side, *2 acyl side, *3 side chain or, on linkers, in order; H or OH if unused. Where a SMILES comes first, the peptide text is derived from it. Side-chain parts run from the residue outwards. The star is where a group is joined. C18 diacid = O=C(O)CCCCCCCCCCCCCCCCC(=O)*; γGlu = O=C(O)[C@H](CCC(=O)[*:2])N[*:1]; Isovaleryl = CC(C)CC(=O)*; Ahx = NCCCCCC(=O)O

Assays:
[1] = biological target: T1, Human Neuropeptide Y2 Receptor (Homo sapiens, UniProt P49146); experiment: Radioligand binding competition assay (RLB); settings: Table 3, 125I-PYY(1-36) competition; read-out: Ki
T1 construct: purchased CHEMICON HTS066M
T1 sequence (P49146 1-381): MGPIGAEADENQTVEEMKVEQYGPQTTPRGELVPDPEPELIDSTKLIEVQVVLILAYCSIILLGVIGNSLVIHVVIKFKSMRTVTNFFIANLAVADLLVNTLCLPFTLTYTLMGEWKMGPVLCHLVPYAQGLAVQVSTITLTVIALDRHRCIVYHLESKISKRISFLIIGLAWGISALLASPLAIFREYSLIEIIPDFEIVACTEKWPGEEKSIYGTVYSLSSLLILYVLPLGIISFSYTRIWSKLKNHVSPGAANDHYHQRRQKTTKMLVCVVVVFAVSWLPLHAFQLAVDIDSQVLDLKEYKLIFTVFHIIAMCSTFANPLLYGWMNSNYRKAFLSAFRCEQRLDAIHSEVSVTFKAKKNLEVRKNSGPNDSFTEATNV
Summary of the method: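 Filtration binding assay on human Y2 receptor membrane preparation, 0.5 μg protein per well, in 50 mM HEPES pH 7.4 containing 5 mM MgCl2, 1 mM CaCl2 and 0.2% ovalbumin. Plates shake 2 h at room temperature before harvest and scintillation counting.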

Solubility determination = settings: for Sol6: pH 6; for Sol7: pH 7
Summary of the method: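 Solubility is derived from the ratio of reversed-phase peak areas, filtered sample over a control dissolved at 1 mg/ml in 50% acetonitrile. Peptides are agitated for 2 hours at room temperature in 0.1 M sodium diphosphate at pH 6.4 or 7.0, aiming at 10 mg/ml.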

| Compound | Ki [1] [nM] | Sol6 (Solubility determination) [mg/mL] | Sol7 (Solubility determination) [mg/mL] |
| --- | --- | --- | --- |
| CC(C)CC(=O)N[C@@H](C)C(=O)N1CCC[C@H]1C(=O)N[C@@H](CCC(=O)O)C(=O)N[C@@H](CCCCNC(=O)CCCCCNC(=O)CC[C@H](NC(=O)CCCCCCCCCCCCCCCCC(=O)O)C(=O)O)C(=O)N1CCC[C@H]1C(=O)N[C@@H](CCC(=O)O)C(=O)N[C@@H](CCC(=O)O)C(=O)N[C@@H](CC(C)C)C(=O)N[C@@H](C)C(=O)N[C@H](C(=O)N1CCC[C@H]1C(=O)N[C@@H](CCC(=O)O)C(=O)N[C@@H](CCC(=O)O)C(=O)N[C@@H](CC(C)C)C(=O)N[C@@H](CCC(N)=O)C(=O)N[C@@H](CCCNC(=N)N)C(=O)N[C@@H](Cc1ccc(O)cc1)C(=O)N[C@@H](Cc1ccc(O)cc1)C(=O)N[C@H](C(=O)N[C@@H](CO)C(=O)N[C@@H](CC(C)C)C(=O)N[C@@H](CCCNC(=N)N)C(=O)N[C@@H](Cc1c[nH]cn1)C(=O)N[C@@H](Cc1ccc(O)cc1)C(=O)N[C@@H](Cc1ccc(O)cc1)C(=O)N[C@@H](CC(N)=O)C(=O)N[C@@H](Cc1c[nH]c2ccccc12)C(=O)N[C@@H](CC(C)C)C(=O)N[C@H](C(=O)N[C@@H](CCCNC(=N)N)C(=O)N[C@@H](CCC(N)=O)C(=O)N[C@@H](CCCNC(=N)N)C(=O)N[C@@H](Cc1ccc(O)cc1)C(N)=O)[C@@H](C)O)C(C)C)[C@@H](C)O [Compound 153, N{alpha-4}-(3-methylbutanoyl)-N{epsilon-7}-(6-[(4S)-4-carboxy-4-(17-carboxyheptadecanamido)butanamido]hexanoyl)-[4A,7K,9E,11L,13T,18Q,22V,28Y,30W,31L]-hPYY(4-36)] | 6.8 | 6.0 | 9.5 |
| CC(C)CC(=O)N[C@@H](C)C(=O)N1CCC[C@H]1C(=O)N[C@@H](CCC(=O)O)C(=O)N[C@@H](CCCCNC(=O)CCCCCNC(=O)CC[C@H](NC(=O)CCCCCCCCCCCCCCCCC(=O)O)C(=O)O)C(=O)N1CCC[C@H]1C(=O)N[C@@H](CCC(=O)O)C(=O)N[C@@H](CCC(=O)O)C(=O)N[C@@H](CC(=O)O)C(=O)N[C@@H](CO)C(=O)N[C@@H](CO)C(=O)N1CCC[C@H]1C(=O)N[C@@H](CCC(=O)O)C(=O)N[C@@H](CCC(=O)O)C(=O)N[C@@H](CC(C)C)C(=O)N[C@@H](CCC(N)=O)C(=O)N[C@@H](CCCNC(=N)N)C(=O)N[C@@H](Cc1ccc(O)cc1)C(=O)N[C@@H](Cc1ccc(O)cc1)C(=O)N[C@H](C(=O)N[C@@H](C)C(=O)N[C@@H](CC(C)C)C(=O)N[C@@H](CCCNC(=N)N)C(=O)N[C@@H](Cc1c[nH]cn1)C(=O)N[C@@H](Cc1ccc(O)cc1)C(=O)N[C@@H](Cc1ccc(O)cc1)C(=O)N[C@@H](CC(N)=O)C(=O)N[C@@H](Cc1c[nH]c2ccccc12)C(=O)N[C@@H](CC(C)C)C(=O)N[C@H](C(=O)N[C@@H](CCCNC(=N)N)C(=O)N[C@@H](CCC(N)=O)C(=O)N[C@@H](CCCNC(=N)N)C(=O)N[C@@H](Cc1ccc(O)cc1)C(N)=O)[C@@H](C)O)C(C)C [Compound 151, N{alpha-4}-(3-methylbutanoyl)-N{epsilon-7}-(6-[(4S)-4-carboxy-4-(17-carboxyheptadecanamido)butanamido]hexanoyl)-[4A,7K,9E,12S,18Q,22V,23A,28Y,30W,31L]-hPYY(4-36)] | 1.68 | 8.2 | 9.7 |
| CC(C)CC(=O)N[C@@H](C)C(=O)N1CCC[C@H]1C(=O)N[C@@H](CCC(=O)O)C(=O)N[C@@H](CCCCNC(=O)CCCCCNC(=O)CC[C@H](NC(=O)CCCCCCCCCCCCCCCCC(=O)O)C(=O)O)C(=O)N1CCC[C@H]1C(=O)N[C@@H](CCC(=O)O)C(=O)N[C@@H](CCC(=O)O)C(=O)N[C@@H](CCC(N)=O)C(=O)N[C@@H](C)C(=O)N[C@H](C(=O)N1CCC[C@H]1C(=O)N[C@@H](CCC(=O)O)C(=O)N[C@@H](CCC(=O)O)C(=O)N[C@@H](CC(C)C)C(=O)N[C@@H](CCC(N)=O)C(=O)N[C@@H](CCCNC(=N)N)C(=O)N[C@@H](Cc1ccc(O)cc1)C(=O)N[C@@H](Cc1ccc(O)cc1)C(=O)N[C@H](C(=O)N[C@@H](CO)C(=O)N[C@@H](CC(C)C)C(=O)N[C@@H](CCCNC(=N)N)C(=O)N[C@@H](Cc1c[nH]cn1)C(=O)N[C@@H](Cc1ccc(O)cc1)C(=O)N[C@@H](Cc1ccc(O)cc1)C(=O)N[C@@H](CC(N)=O)C(=O)N[C@@H](Cc1c[nH]c2ccccc12)C(=O)N[C@@H](CC(C)C)C(=O)N[C@H](C(=O)N[C@@H](CCCNC(=N)N)C(=O)N[C@@H](CCC(N)=O)C(=O)N[C@@H](CCCNC(=N)N)C(=O)N[C@@H](Cc1ccc(O)cc1)C(N)=O)[C@@H](C)O)C(C)C)[C@@H](C)O [Compound 9, N{alpha-4}-(3-methylbutanoyl)-N{epsilon-7}-(6-[(4S)-4-carboxy-4-(17-carboxyheptadecanamido)butanamido]hexanoyl)[4A,7K,9E,11Q,13T,18Q,22V,28Y,30W,31L]-hPYY(4-36)] | 3.32 | 9.7 | 9.9 |
| CC[C@H](C)[C@H](NC(=O)[C@H](CCC(=O)O)NC(=O)[C@H](CCC(=O)O)NC(=O)[C@@H]1CCCN1C(=O)[C@@H](NC(=O)[C@H](C)NC(=O)[C@H](CC(=O)O)NC(=O)[C@H](CCC(=O)O)NC(=O)[C@@H]1CCCN1C(=O)[C@@H]1CCCN1C(=O)[C@H](CCCCNC(=O)CCCCCNC(=O)CC[C@H](NC(=O)CCCCCCCCCCCCCCCCC(=O)O)C(=O)O)NC(=O)[C@H](CCC(=O)O)NC(=O)[C@@H]1CCCN1C(=O)[C@H](C)NC(=O)CC(C)C)[C@@H](C)O)C(=O)N[C@@H](CCC(N)=O)C(=O)N[C@@H](CCCNC(=N)N)C(=O)N[C@@H](Cc1ccc(O)cc1)C(=O)N[C@@H](Cc1ccc(O)cc1)C(=O)N[C@H](C(=O)N[C@@H](CO)C(=O)N[C@@H](CC(C)C)C(=O)N[C@@H](CCCNC(=N)N)C(=O)N[C@@H](Cc1c[nH]cn1)C(=O)N[C@@H](Cc1ccc(O)cc1)C(=O)N[C@@H](Cc1ccc(O)cc1)C(=O)N[C@@H](CC(N)=O)C(=O)N[C@@H](Cc1c[nH]c2ccccc12)C(=O)N[C@@H](CC(C)C)C(=O)N[C@H](C(=O)N[C@@H](CCCNC(=N)N)C(=O)N[C@@H](CCC(N)=O)C(=O)N[C@@H](CCCNC(=N)N)C(=O)N[C@@H](Cc1ccc(O)cc1)C(N)=O)[C@@H](C)O)C(C)C [Compound 28, N{alpha-4}-(3-methylbutanoyl)-N{epsilon-7}-(6-[(4S)-4-carboxy-4-(17-carboxyheptadecanamido)butanamido]hexanoyl)[4A,7K,9P,13T,17I,18Q,22V,28Y,30W,31L]-hPYY(4-36)] | 0.49 | >10.0 | >10.0 |
| CC(C)CC(=O)N[C@@H](C)C(=O)N1CCC[C@H]1C(=O)N[C@@H](CCC(=O)O)C(=O)N[C@@H](CCCCNC(=O)CCCCCNC(=O)CC[C@H](NC(=O)CCCCCCCCCCCCCCCCC(=O)O)C(=O)O)C(=O)N1CCC[C@H]1C(=O)NCC(=O)N[C@@H](C)C(=O)N[C@@H](CC(=O)O)C(=O)N[C@@H](C)C(=O)N[C@@H](CO)C(=O)N1CCC[C@H]1C(=O)N[C@@H](CCC(=O)O)C(=O)N[C@@H](CCCCN)C(=O)N[C@@H](CC(C)C)C(=O)N[C@@H](CCC(N)=O)C(=O)N[C@@H](CCCNC(=N)N)C(=O)N[C@@H](Cc1ccc(O)cc1)C(=O)N[C@@H](Cc1ccc(O)cc1)C(=O)N[C@H](C(=O)N[C@@H](CO)C(=O)N[C@@H](CC(C)C)C(=O)N[C@@H](CCCNC(=N)N)C(=O)N[C@@H](Cc1c[nH]cn1)C(=O)N[C@@H](Cc1ccc(O)cc1)C(=O)N[C@@H](Cc1ccc(O)cc1)C(=O)N[C@@H](Cc1c[nH]cn1)C(=O)N[C@@H](CCCCN)C(=O)N[C@@H](CC(C)C)C(=O)N[C@H](C(=O)N[C@@H](CCCNC(=N)N)C(=O)N[C@@H](CCC(N)=O)C(=O)N[C@@H](CCCNC(=N)N)C(=O)N[C@@H](Cc1ccc(O)cc1)C(N)=O)[C@@H](C)O)C(C)C [Compound 174, N{alpha-4}-(3-methylbutanoyl)-N{epsilon-7}-(6-[(4S)-4-carboxy-4-(17-carboxyheptadecanamido)butanamido]hexanoyl)-[4A,7K,10A,16K,18Q,22V,28Y,29H,30K,31L]-hPYY(4-36)] (Isovaleryl-APEK([Ahx-γGlu-C18 diacid])PGADASPEKLQRYYVSLRHYYHKLTRQRY-NH2) | 0.21 | 3.1 | 1.2 |
| CC(C)CC(=O)N[C@@H](C)C(=O)N1CCC[C@H]1C(=O)N[C@@H](C)C(=O)N[C@@H](CCCCNC(=O)CCCCCNC(=O)CC[C@H](NC(=O)CCCCCCCCCCCCCCCCC(=O)O)C(=O)O)C(=O)N1CCC[C@H]1C(=O)N[C@@H](CCC(=O)O)C(=O)N[C@@H](CCC(=O)O)C(=O)N[C@@H](CC(=O)O)C(=O)N[C@@H](C)C(=O)N[C@@H](CO)C(=O)N1CCC[C@H]1C(=O)N[C@@H](CCC(=O)O)C(=O)N[C@@H](CCC(=O)O)C(=O)N[C@@H](CC(C)C)C(=O)N[C@@H](CCC(N)=O)C(=O)N[C@@H](CCCNC(=N)N)C(=O)N[C@@H](Cc1ccc(O)cc1)C(=O)N[C@@H](Cc1ccc(O)cc1)C(=O)N[C@H](C(=O)N[C@@H](CCC(=O)O)C(=O)N[C@@H](CC(C)C)C(=O)N[C@@H](CCCNC(=N)N)C(=O)N[C@@H](Cc1c[nH]cn1)C(=O)N[C@@H](Cc1ccc(O)cc1)C(=O)N[C@@H](Cc1ccc(O)cc1)C(=O)N[C@@H](CC(N)=O)C(=O)N[C@@H](Cc1c[nH]c2ccccc12)C(=O)N[C@@H](CC(C)C)C(=O)N[C@H](C(=O)N[C@@H](CCCNC(=N)N)C(=O)N[C@@H](CCC(N)=O)C(=O)N[C@@H](CCCNC(=N)N)C(=O)N[C@@H](Cc1ccc(O)cc1)C(N)=O)[C@@H](C)O)C(C)C [Compound 166, N{alpha-4}-(3-methylbutanoyl)-N{epsilon-7}-(6-[(4S)-4-carboxy-4-(17-carboxyheptadecanamido)butanamido]hexanoyl)-[4A,6A,7K,9E,18Q,22V,23E,28Y,30W,31L]-hPYY(4-36)] | 2.05 | 9.2 | 9.7 |
